In the Biogen ADME set (Fang et al. 2023):
≈ marks a conversion by molar mass, not a printed value.

Details: for aqueous solubility: pH 6.8

Row | Structure (SMILES) | MDR1-MDCK efflux ratio | intrinsic clearance, human liver microsomes [mL/min/kg] | intrinsic clearance, rat liver microsomes [mL/min/kg] | aqueous solubility [µg/mL] | fraction unbound, human plasma | fraction unbound, rat plasma
1 | CCCc1cc(CNC(=O)N2C[C@H]3C[C@@H](C2)c2cccc(=O)n2C3)on1 | 16.4 | 16.6 | 90.4 |  |  | 
2 | Cc1nn(CCNS(=O)(=O)N2CCOCC2)c(C)c1C | 8.58 | 6.58 | 265 |  |  | 
3 | COCC(=O)Nc1nc(C)c(C)s1 | 0.659 | 18.9 | 71.3 | 25.6 (≈ 128 µM) |  | 
4 | Cc1cc(C(=O)NCCc2ccccn2)c(C)s1 | 0.639 | 63.1 | 232 | 41.1 (≈ 158 µM) |  | 
5 | O=C(O)c1ccc(CN2CC[C@H](c3nc4cc(Cl)ccc4o3)C2)cc1 | 1.11 | ≤ 4.74 | 17.8 | 32.4 (≈ 90.8 µM) |  | 
6 | Cc1cccc(-c2ncc(CNCc3ccccc3-n3cccn3)cn2)c1 | 0.593 | 303 | 3450 | 22.4 (≈ 62.9 µM) |  | 
7 | CN(CC1(O)CCCC1)c1ncccn1 | 1.27 | ≤ 4.74 | 132 | 32.6 (≈ 157 µM) |  | 
8 | Cc1cc(C)c(CC(=O)N2CC(CO)C2)c(C)c1 | 1.72 | 4.99 | 15.6 | 46.3 (≈ 187 µM) |  | 
9 | COc1ccc(NC(=O)CN2CCCC2)cc1 |  | ≤ 4.74 | 1850 |  |  | 
10 | C[C@@H](CN1CCC2(CC1)C(=O)NCN2c1cccc(F)c1)NC(=O)c1ccc(Br)cc1 |  | 88.8 | 312 | 3.85 (≈ 7.87 µM) |  | 
11 | O=c1[nH]c2ccccc2n1C1CCN(CCOc2ccccc2)CC1 | 2.14 | 29.6 | 357 | 47.4 (≈ 140 µM) |  | 
12 | N#Cc1cc(N2CC(CO)C2)nc2ccc(Cl)cc12 |  | 68.9 | 121 |  |  | 
13 | CNC(=O)Cc1noc(-c2ccc3ncccc3c2)n1 |  | ≤ 4.74 | 21.8 |  |  | 
14 | CNC(=O)CN1CCCN(C(=O)c2c(C)nn(-c3ccccc3)c2Cl)CC1 | 82.1 | ≤ 4.74 | 87.7 | 49.9 (≈ 128 µM) |  | 
15 | CN(C(=O)c1cc(N2CCNC2=O)ccc1F)C1CCNC1 (configuration not stated) | 0.835 | ≤ 4.74 |  |  | 0.769 | 
16 | O=c1[nH]c2ccccc2n1C1CCN(Cc2coc(-c3cccs3)n2)CC1 |  | 29.4 | 475 |  |  | 
17 | CNc1cc(Nc2cccn(-c3ccccn3)c2=O)nn2c(C(=O)N[C@@H]3C[C@@H]3F)cnc12 | 31.1 | ≤ 4.74 | 24.7 | 1.23 (≈ 2.83 µM) | 0.098 | 0.033
18 | CN(C)C(=O)c1ccnc(NCc2cccc(C#N)c2)c1 | 5.72 | ≤ 4.74 | 69 |  |  | 
19 | C[C@]12C=CC(=O)C=C1CC[C@@H]1[C@@H]2[C@@H](O)C[C@@]2(C)[C@H]1CC[C@]2(O)C(=O)CO | 5.44 | 25.4 | 62.9 |  |  | 
20 | C[C@@H]1CC(=O)Nc2cccc(-c3ccc4c(c3)c(-c3cnn(C)c3)nn4C)c2N1 | 57.3 | 8.83 | 46.5 |  |  | 

Row | Structure (SMILES) | MDR1-MDCK efflux ratio | intrinsic clearance, human liver microsomes [mL/min/kg] | intrinsic clearance, rat liver microsomes [mL/min/kg] | aqueous solubility [µg/mL] | fraction unbound, human plasma | fraction unbound, rat plasma
21 | COCCNC(=O)c1ccnc(C2CCNCC2)c1 |  | ≤ 4.74 | 16.1 |  | 1 | 1
22 | CC(C)c1ccccc1OC(=O)NCCc1ccc2ccccc2c1 | 0.492 |  |  | 0.71 (≈ 2.13 µM) |  | 
23 | Cn1c(CNC(=O)Cc2ccccc2)nc2ccccc21 | 2.25 | 7.54 | 89.6 | 44.8 (≈ 160 µM) |  | 
24 | C#CCNC(=O)c1ccc(OC)c(OC)c1 |  |  |  | 26.9 (≈ 123 µM) |  | 
25 | COc1cc2nc(/C=C/c3cocn3)sc2cc1OC | 0.504 | 11.4 | 74.5 | 12.4 (≈ 42.9 µM) |  | 
26 | O=C(Nc1ccccc1)c1scnc1-c1ccccc1 |  | 110 | 1040 |  |  | 
27 | COc1ccc(OCc2n[nH]c(-c3n[nH]c4c3CCC4)n2)cc1 | 2.2 | 50.9 | 1070 |  |  | 
28 | CCOC(=O)C1(Cc2cc(-c3ccc(F)cc3)no2)CCN(Cc2ccccc2O)CC1 | 2.16 | 155 | 790 | 6.94 (≈ 15.8 µM) |  | 
29 | COc1ccccc1-c1nc(C(=O)O)cs1 | 0.649 | ≤ 4.74 | ≤ 10.7 | 54.6 (≈ 232 µM) |  | 
30 | N#Cc1ccccc1OCn1nnc2ccccc2c1=O |  |  |  | 0.65 (≈ 2.34 µM) |  | 
31 | N#CN1CCC[C@H](n2nc(-c3ccc(Oc4ccc(F)cc4F)cc3)c(C(N)=O)c2N)C1 | 33 | ≤ 4.74 | 68.2 | 35.9 (≈ 81.9 µM) |  | 
32 | COc1ccc(Nc2nc3ccccc3c3nncn23)cc1 |  |  |  | 0.14 (≈ 0.481 µM) |  | 
33 | CC(C)N(C)S(=O)(=O)N1CCC(CNC(=O)CCCn2cccn2)CC1 | 57.9 | 16.3 | 285 |  |  | 
34 | COc1ccc(OCc2n[nH]c(-c3ncoc3C(C)C)n2)cc1 | 0.675 | 17.8 | 514 |  |  | 
35 | COc1ccccc1CC(=O)Nc1ncc(C)s1 | 0.674 | 17.7 | 261 | 6.6 (≈ 25.2 µM) |  | 
36 | Cc1ccc(S(=O)(=O)Nc2ccc3c(c2)c(C(=O)C(F)(F)F)cn3CC(=O)N[C@@H](CC(C)C)C(=O)O)cc1 | 20 |  |  | 80.4 (≈ 145 µM) |  | 
37 | CCOc1cc(CNc2ccc(N3CCOCC3)c(C(=O)O)c2)cc(Cl)c1OC |  | 21.1 | 154 | 22.7 (≈ 54 µM) |  | 
38 | Nc1nncc(-c2ccccc2OC(F)F)n1 | 0.709 | ≤ 4.74 | ≤ 10.7 | 38.9 (≈ 163 µM) |  | 
39 | Cn1ncc2c(Oc3cccc(Oc4ccccn4)c3)ncnc21 | 0.672 | 10.1 | 369 | 39.8 (≈ 125 µM) |  | 
40 | COc1ccc(OC[C@@H]2c3cc(OC)c(OC)cc3CCN2C(=O)c2cccc(Cl)c2)cc1 | 1.25 |  |  |  | 0.00764 | 0.0171

Row | Structure (SMILES) | MDR1-MDCK efflux ratio | intrinsic clearance, human liver microsomes [mL/min/kg] | intrinsic clearance, rat liver microsomes [mL/min/kg] | aqueous solubility [µg/mL] | fraction unbound, human plasma | fraction unbound, rat plasma
41 | CCCn1c(=O)[nH]c2nc(-c3ccc(S(=O)(=O)O)cc3)[nH]c2c1=O |  | ≤ 4.74 | ≤ 10.7 | 52.1 (≈ 149 µM) |  | 
42 | CC(C)c1csc(NC(=O)C2CCN(c3ncccn3)CC2)n1 | 0.562 | 44.6 | 268 | 44.8 (≈ 135 µM) |  | 
43 | NC(=O)c1ccc(Oc2ccc(C(=O)N3CCCCCC3)cc2)cc1 | 4.9 | 11.4 | 82.3 | 59.8 (≈ 177 µM) |  | 
44 | C[C@@]1(c2ncncc2F)NC(=O)c2cc(-c3cn[nH]c3)ccc21 | 21.8 | ≤ 4.74 | 34.9 | 37.5 (≈ 121 µM) |  | 
45 | O=C(Nc1nc2ccccc2[nH]1)C1CCCO1 (configuration not stated) |  |  |  | 35.5 (≈ 154 µM) |  | 
46 | COc1ccc(-c2csc3ncnc(Oc4ccc(C)nc4)c23)cc1 | 0.595 | 78.5 | 320 | 7.81 (≈ 22.4 µM) |  | 
47 | O=C(NC[C@]1(O)CCN(Cc2ccsc2)C[C@H]1O)c1c[nH]cn1 | 0.366 | ≤ 4.74 | ≤ 10.7 |  |  | 
48 | COc1ccccc1CC(=O)NC1CCN(C)CC1 | 6.13 | ≤ 4.74 | 54.6 | 43.2 (≈ 165 µM) |  | 
49 | CN(Cc1nncn1C)C1CCN(c2ccccc2F)CC1 | 2.06 | ≤ 4.74 | 89.4 |  |  | 
50 | CCc1ccccc1-c1cn(CCc2cnccn2)nn1 | 0.783 | 24.7 | 290 | 27.6 (≈ 99 µM) |  | 
51 | c1ccc(C2(c3ccccc3)CCCN(Cc3nnc(C4CC4)o3)C2)cc1 | 0.685 | 246 | 1200 | 35.6 (≈ 98.9 µM) |  | 
52 | Fc1ccc(F)c(CN2CCN(Cc3ccc4c(c3)OCO4)CC2)c1 | 0.645 | 105 | 409 | 26.9 (≈ 77.7 µM) |  | 
53 | CNC(=O)CN(C)c1cccc(F)c1C#N | 0.738 | ≤ 4.74 | 15.2 | 34.1 (≈ 154 µM) |  | 
54 | CN(Cc1ccc(N)nc1)c1nc(C(F)(F)F)cs1 | 0.598 | ≤ 4.74 | 116 |  |  | 
55 | CCn1c(=O)c2cc(OC)c(OC)cc2n(Cc2ccc(Cl)cc2)c1=O |  |  |  | 0.4 (≈ 1.07 µM) |  | 
56 | COc1ccc2nc3c(cc2c1)CNCCO3 | 0.504 | 18.1 | 82.4 |  |  | 
57 | CCn1ncc(CN(C)C(=O)c2ccc(-c3nc(C)cc(C)n3)cc2)c1C | 4.16 | 19.3 | 278 |  |  | 
58 | O=C(Cc1csc(-c2ccccn2)n1)NC1CCCCCC1 | 0.945 | 87 | 2280 | 11.4 (≈ 36.2 µM) |  | 
